We go through 20 compounds from patent US20250382274A1, “COMPOSITIONS AND METHODS FOR THE TREATMENT OF PARKINSON'S AND GAUCHER DISEASE” (CHILDREN'S HOSPITAL MEDICAL CENTER, priority 2024, published 2025).

Residue numbers refer to the chain shown, from its start.

Assay [1] has as its target T1, GCase (purified enzyme, Velaglucerase alfa, VPRIV) (Homo sapiens, UniProt P04062).
T1 construct: purchased Shire Human Genetic Therapies, Cambridge, MA
T1 sequence (P04062 40-536): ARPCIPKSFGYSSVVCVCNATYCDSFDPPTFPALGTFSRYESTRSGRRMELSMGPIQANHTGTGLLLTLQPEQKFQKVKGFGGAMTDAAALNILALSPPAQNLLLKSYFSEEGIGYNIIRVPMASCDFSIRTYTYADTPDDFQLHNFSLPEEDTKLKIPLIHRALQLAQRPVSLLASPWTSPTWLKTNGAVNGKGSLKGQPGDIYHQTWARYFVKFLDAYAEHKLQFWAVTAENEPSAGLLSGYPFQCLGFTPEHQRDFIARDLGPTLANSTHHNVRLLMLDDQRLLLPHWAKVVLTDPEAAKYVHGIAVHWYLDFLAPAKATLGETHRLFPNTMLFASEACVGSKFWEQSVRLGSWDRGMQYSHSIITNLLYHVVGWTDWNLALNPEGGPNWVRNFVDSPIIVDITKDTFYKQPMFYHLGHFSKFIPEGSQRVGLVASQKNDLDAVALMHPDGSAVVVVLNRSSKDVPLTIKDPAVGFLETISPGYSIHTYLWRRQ
Briefly: GCase AC50 enzyme activity assay. It is filed as biochemical. The following applies: pH 5.6, 4-MuGlu substrate, compounds 0-40 μM. The method, then:
An in vitro enzyme assay was performed through a dose response curve of Compounds (0-40 μM) with purified enzyme (Velaglucerase alfa, VPRIV®, Shire Human Genetic Therapies, Cambridge, MA) in citric phosphate [0.025 mM] buffer (pH 5.6) where 4-MuGlu [4 mM] was the substrate. Compounds were pre-incubated with the enzyme for 40 minutes at room temperature prior to substrate addition, and then incubated at 37° C. for 1 hour. AC50 represents the concentration of a Compound that produces 50% of its maximal response in the in vitro GCase activity assay.
(§1) GCase activities were determined fluorometrically with 4-MuGlu. The relative fluorescence unit (RFU) of 4-MuGlu standard curve is generated with the plate reader (M5, Molecular Devise) as 1 n mole=56500 RFU. The human mutant Gaucher fibroblasts were purchased from Coriell Institute (Camden, NJ): N370/ΔGG (Cat #: GM00852) and L444P/L444P (cat #: GM00877)

Assay [2] concerns the target T2, GCase in healthy human fibroblasts (Homo sapiens, UniProt P04062).
T2 construct: Healthy human fibroblasts (GCase cell); endogenous in cells; host or cells: healthy human fibroblasts
T2 sequence (P04062 40-536): T1 sequence (P04062 40-536)
Briefly: EC50 cell-based assay for GCase, healthy human fibroblasts (GCase cell). Particulars: 5 days compound treatment (0-20 μM). On the procedure:
(§2) In cell assays, GCase activity measurements were carried out on harvested cell pellets on the 5th day of Compound treatment. Healthy human fibroblasts (GCase cell), mutant N370/ΔGG (GCase N370S) or L444P/L444P (GCase L444P) were incubated with the Compound (0-20 μM) for 5 days with 15% fetal bovine serum (FBS) in Dulbecco's Modified Eagle Medium (DMEM) in 100 mm culture dishes. Fresh Medium with Compound were replaced every other day. On the 5th day of Compound treatment, harvested cell pellets were lysed with 1% Na-taurocholate (Tc) and 1% Triton X-100 (Tx), and mixed with the reaction buffer which contained 0.025 mM Citric phosphate buffer (pH 5.6), 0.25% Tc/Tx and 4 mM 4-MuGlu, then incubated at 37° C. for 1 hour. EC50 represents the concentration of a Compound that produces 50% of its maximal response in the cell-based GCase activity assay.
as §1

Assay [3] has as its target T3, GCase N370S (N370/ΔGG human mutant Gaucher fibroblasts) (Homo sapiens, UniProt P04062, N409S).
T3 construct: The human mutant Gaucher fibroblasts were purchased from Coriell Institute; host or cells: human Gaucher fibroblasts N370/ΔGG
T3 sequence (P04062 40-536 N409S): T1 sequence (P04062 40-536) with N370S
Briefly: EC50 cell-based assay for GCase, mutant N370/ΔGG fibroblasts (GCase N370S). The following applies: 5 days compound treatment (0-20 μM). On the procedure:
as §2, §1

In assay [1], `O=C(COc1ccccc1C(=O)NCC1CCO1)Nc1ccc(Br)cc1` (stereo not shown) [Compound 2, 2-((4-bromophenylcarbamoyl)methoxy)-N-((oxetan-2-yl)methyl)benzamide] registered an AC50 of less than 10 µM. Moreover, the values for the EC50 in assay [2] and in assay [3] were 10 to 100 µM and less than 10 µM, respectively.
Compound `O=C(Nc1ccc(Br)cc1)c1nc2cccc(C(=O)NCC3CCCO3)c2o1` (stereo not shown) [Compound 4, N2-(4-bromophenyl)-N7-((tetrahydrofuran-2-yl)methyl)benzo[d]oxazole-2,7-dicarboxamide] returned an AC50 in assay [1] of less than 10 µM. Besides, the EC50 in assay [2] and in assay [3] was less than 10 µM throughout.
Regarding `COc1ccc(NC(=O)C(C)(C)Oc2ccccc2C(=O)NCC2CCCO2)cc1` (stereo not shown) [Compound 32, 2-(2-(4-methoxyphenylcarbamoyl)propan-2-yloxy)-N-((tetrahydrofuran-2-yl)methyl)benzamide], the AC50 in assay [1] is less than 10 µM. Also, the EC50 was less than 10 µM in assay [2] and 10 to 100 µM in assay [3].
In the case of `COc1ccc(NC(=O)C(C)(C)Oc2ccc(F)cc2C(=O)NCC2CCCO2)cc1` (stereo not shown) [Compound 33, 2-(2-(4-methoxyphenylcarbamoyl)propan-2-yloxy)-5-fluoro-N-((tetrahydrofuran-2-yl)methyl)benzamide], in assay [1], the concentration at half-maximal activity (AC50) was less than 10 µM. The compound further had an EC50 in assay [2] of less than 10 µM.
Take `CN(C)Cc1ccc(NC(=O)C(C)(C)Oc2ccccc2C(=O)NCC2CCCO2)cc1` (stereo not shown) [Compound 34, 2-(2-(4-((dimethylamino)methyl)phenylcarbamoyl)propan-2-yloxy)-N-((tetrahydrofuran-2-yl)methyl)benzamide]: in assay [1], the AC50 was less than 10 µM. This compound also showed an EC50 in assay [2] of less than 10 µM.
For `CC(C)(Oc1ccccc1C(=O)NCC1CCCO1)C(=O)NC1CCOCC1` (stereo not shown) [Compound 35, 2-[1,1-dimethyl-2-oxo-2-(tetrahydropyran-4-ylamino)ethoxy]-N-(tetrahydrofuran-2-ylmethyl)benzamide], the AC50 in assay [1] was less than 10 µM. The compound also yielded an EC50 in assay [2] of less than 10 µM.
With `CC(C)(Oc1ccccc1C(=O)NCC1CCCO1)C(=O)NC1CCCCC1` (stereo not shown) [Compound 36, 2-[2-(cyclohexylamino)-1,1-dimethyl-2-oxo-ethoxy]-N-(tetrahydrofuran-2-ylmethyl)benzamide], in assay [1], the AC50 was less than 10 µM. Further, the EC50 in assay [2] was less than 10 µM.
The compound `CC(C)(Oc1ccc(F)cc1C(=O)NCC1CCO1)C(=O)NC1CCC(F)(F)CC1` (stereo not shown) [Compound 38, 2-[2-[(4,4-difluorocyclohexyl)amino]-1,1-dimethyl-2-oxo-ethoxy]-5-fluoro-N-(oxetan-2-ylmethyl)benzamide] showed an AC50 in assay [1] of less than 10 µM. The EC50 in assay [2] is less than 10 µM.
`CC1(C)CCC(NC(=O)C(C)(C)Oc2ccc(F)cc2C(=O)NCC2CCO2)CO1` (stereo not shown) [Compound 39, 2-[2-[(6,6-dimethyltetrahydropyran-3-yl)amino]-1,1-dimethyl-2-oxo-ethoxy]-5-fluoro-N-(oxetan-2-ylmethyl)benzamide] gave an AC50 in assay [1] of less than 10 µM. The compound also had a half-maximal effective concentration (EC50) in assay [2] of less than 10 µM.
For `O=C(NCC1CCO1)c1cccc2c1CN(C(=O)Nc1ccc(C(F)(F)F)cc1)C2` (stereo not shown) [Compound 40, N4-(oxetan-2-ylmethyl)-N2-[4-(trifluoromethyl)phenyl]isoindoline-2,4-dicarboxamide], the AC50 in assay [1] was less than 10 µM. The EC50 in assay [2] is less than 10 µM.
Consider `O=C(NCC1CCO1)c1cccc2c1CN(C(=O)NC1CCC(F)(F)CC1)C2` (stereo not shown) [Compound 41, N2-(4,4-difluorocyclohexyl)-N4-(oxetan-2-ylmethyl)isoindoline-2,4-dicarboxamide], for which the AC50 in assay [1] was less than 10 µM. Also, the EC50 in assay [2] is less than 10 µM.
Turning to `COc1ccc(NC(=O)N2Cc3cccc(C(=O)NCC4CCO4)c3C2)cc1Cl` (stereo not shown) [Compound 42, N2-(3-chloro-4-methoxyphenyl)-N4-(oxetan-2-ylmethyl) isoindoline-2,4-dicarboxamide], the AC50 in assay [1] was less than 10 µM. This compound also had an EC50 in assay [2] of less than 10 µM.
Consider `COc1ccc(NC(=O)N2Cc3cccc(C(=O)NCC4CCO4)c3C2)c(Cl)c1` (stereo not shown) [Compound 43, N2-(2-chloro-4-methoxyphenyl)-N4-(oxetan-2-ylmethyl)isoindoline-2,4-dicarboxamide], for which the AC50 in assay [1] lay within 10 to 100 µM. In assay [2], this compound displayed a half-maximal effective concentration (EC50) of less than 10 µM.
`CNc1ccc(NC(=O)c2nc3cc(F)cc(C(=O)NCC4CCO4)c3o2)cc1` (stereo not shown) [Compound 44, 5-fluoro-N2-(4-(methylamino)phenyl)-N7-(oxetan-2-ylmethyl)benzo[d]oxazole-2,7-dicarboxamide] had an AC50 in assay [1] of less than 10 µM. In addition, in assay [2], the EC50 is less than 10 µM.
In assay [1], `COc1ccc(NC(=O)c2nc3cc(F)cc(C(=O)NCC4CCO4)c3o2)c(Cl)c1` (stereo not shown) [Compound 45, N2-(2-chloro-4-methoxyphenyl)-5-fluoro-N7-(oxetan-2-ylmethyl)benzo[d]oxazole-2,7-dicarboxamide] had a half-maximal activity concentration (AC50) of less than 10 µM. This compound yielded a concentration giving a half-maximal response (EC50) in assay [2] of less than 10 µM.
Turning to `COc1ccc(NC(=O)C(C)(C)Oc2ccc(F)cc2C(NCC2CCO2)C(F)(F)F)cc1` (stereo not shown) [Compound 46, 2-(4-fluoro-2-(2,2,2-trifluoro-1-((oxetan-2-ylmethyl)amino)ethyl)phenoxy)-N-(4-methoxyphenyl)-2-methylpropanamide], the AC50 in assay [1] was less than 10 µM. This compound also came in with a 50% effective concentration (EC50) in assay [2] of less than 10 µM.
Regarding `O=C(Nc1ccc(OCF)cc1)c1nc2cc(F)cc(C(=O)NCC3CCO3)c2o1` (stereo not shown) [Compound 47, 5-fluoro-N2-[4-(fluoromethoxy)phenyl]-N7-(oxetan-2-ylmethyl)-1,3-benzoxazole-2,7-dicarboxamid], the AC50 in assay [1] was less than 10 µM. In assay [2], this compound showed an EC50 of less than 10 µM.
In the case of `COc1ccc(NC(=O)c2nc3cc(F)cc(C(=O)NCC4CCCO4)c3o2)cc1` (stereo not shown) [Compound 48, 5-fluoro-N2-(4-methoxyphenyl)-N7-(tetrahydrofuran-2-ylmethyl)-1,3-benzoxazole-2,7-dicarboxamide], in assay [1], the AC50 was less than 10 µM. The compound also showed an EC50 in assay [2] of less than 10 µM.
As for `O=C(Nc1ccc(OC(F)(F)F)cc1)c1nc2cc(F)cc(C(=O)NCC3CC(F)CO3)c2o1` (stereo not shown) [Compound 49, 5-fluoro-N7-[(4-fluorotetrahydrofuran-2-yl)methyl]-N2-[4-(trifluoromethoxy)phenyl]-1,3-benzoxazole-2,7-dicarboxamide], in assay [1], the AC50 is less than 10 µM. This compound also gave an EC50 in assay [2] of less than 10 µM.
On to `COc1ccc(NC(=O)c2ncc(CC(=O)NCC3CCO3)o2)cc1` (stereo not shown) [Compound 50, N-(4-methoxyphenyl)-5-(2-((oxetan-2-ylmethyl)amino)-2-oxoethyl)oxazole-2-carboxamide], for which, in assay [1], the AC50 is less than 10 µM. In assay [2], this compound displayed an EC50 of less than 10 µM.

Usually AC50 stands for the midpoint of the concentration-response curve, whichever way the signal moves. What is called EC50 is the concentration needed to bring the measured effect to its halfway point.
